Measurements reported in patent US12496218B1, “Fractionated topical ocular drug delivery methods and devices for use in the same” (Bausch + Lomb Ireland Limited, priority 2019, dated 2025).

Assays:
[1] = system: humans; assay: Distance corrected near visual acuity (DCNVA) in human subjects after topical ocular micro-dosing, conventional vs fractionated
[2] = system: humans; assay: Intraocular pressure (IOP) in human subjects after topical ocular micro-dosing, conventional vs fractionated; format: in vivo; details: FIG. 5

In the case of `CC[C@@H]1C(=O)OC[C@@H]1Cc1cncn1C` [pilocarpine], the toxic effects ([1]; 2% pilocarpine, double dosing (regimen D) vs single dose (regimen C)) is reported as “absence of any evident toxic effects”, the “change from baseline DCNVA (letter score)” value ([1]; dose regimen B (fractionated 1% pilocarpine), both eyes, photopic conditions, FIG. 4, significant at 1 and 2 hours post-dosing) is reported as “biggest gain from baseline at all time points” and the “portion of subjects who gained more than 15 letters of distance corrected near vision compared with baseline” value ([1]; dose regimen B: double (fractionated) micro-dose of 1% pilocarpine, 5 minute interval, mesopic and photopic illumination) is reported as 66.7%. The “eyes that achieved 3 lines of distance corrected near vision improvement” value ([1]; dose regimen C: single non fractionated dose of 2% pilocarpine) was 33.3%, the “eyes that achieved 3 lines of distance corrected near vision improvement” value ([1]; dose regimen D: double dosing of 2% pilocarpine) was 0% and the “distance corrected near visual acuity, group B compared with group A” value ([1]; double (fractionated) dose of 1% pilocarpine (B) vs single conventional dose of 1% pilocarpine (A)) was “statistically significant improvement”. The “distance corrected near vision, regimen B compared with regimen C (same total drug amount)” value ([1]; fractionated micro-dose of 1% pilocarpine (B) vs 1 dose of 2% pilocarpine (C), mesopic and photopic) was “performed significantly better”, the “IOP (intraocular pressure) result, regimen B compared with regimen C” value ([2]; dose regimen B: fractionated 1% pilocarpine) was “performed much better” and the “IOP (intraocular pressure) result” value ([2]; dose regimen C: single dose of 2% pilocarpine) was “null IOP result”.
